For the assay, the target named is T1, human FXR (NR1H4) (Homo sapiens, UniProt Q96RI1).
T1 construct: host or cells: CHO (Chinese hamster ovary) reporter cells
T1 sequence (Q96RI1 1-486): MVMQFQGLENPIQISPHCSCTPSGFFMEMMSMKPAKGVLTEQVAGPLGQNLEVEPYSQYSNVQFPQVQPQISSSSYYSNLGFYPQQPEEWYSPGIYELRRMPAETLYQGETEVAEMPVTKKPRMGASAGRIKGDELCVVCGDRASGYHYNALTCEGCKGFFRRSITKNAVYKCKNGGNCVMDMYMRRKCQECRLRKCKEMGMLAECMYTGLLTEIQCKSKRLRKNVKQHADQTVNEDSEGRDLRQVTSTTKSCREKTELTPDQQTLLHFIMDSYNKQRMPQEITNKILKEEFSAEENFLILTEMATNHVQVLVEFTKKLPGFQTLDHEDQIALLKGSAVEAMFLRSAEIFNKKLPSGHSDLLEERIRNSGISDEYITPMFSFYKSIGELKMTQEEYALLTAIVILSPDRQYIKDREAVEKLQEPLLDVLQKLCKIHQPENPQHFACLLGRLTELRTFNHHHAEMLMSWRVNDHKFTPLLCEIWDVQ
Nature of the assay: Human FXR (NR1H4) Assay: Gal4 promoter driven luciferase reporter transactivation in CHO cells (Indigo Bioscience kit IB00601). For Efficacy (%): efficacy normalized to CDCA set as 100%. In kind it is cell-based. As to conditions: for Emax: CHO, read-out: Efficacy (%); for EC50: Human FXR (NR1H4) reporter assay, potency ranges. A digest of the protocol:
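Luminescence read-out after 22 h exposure quantified FXR transactivation; compounds were tested at several doses, 0.2% DMSO, in CHO cells engineered with human NR1H4 and a luciferase gene linked to an FXR-responsive promoter.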
Background: Reporter assays use an easily measured gene product as a stand-in for the process of interest.

We go through 15 compounds from patent US10450306B2, “Isoxazole analogs as FXR agonists and methods of use thereof” (Enanta Pharmaceuticals, Inc., priority 2016, dated 2019).

As to `COC(=O)c1cc2sc(N3C4CCC3CC(NCc3c(-c5c(Cl)cccc5Cl)noc3C3CC3)C4)nc2cc1OC` (stereo not drawn) [Example 200-7], the Emax came to 74.5% and the EC50 is 0.001 to 0.1 µM.
For `CN(C)S(=O)(=O)NC(=O)c1ccc2nc(N3C4CCC3CC(NCc3c(-c5c(Cl)cccc5Cl)noc3C3CC3)C4)sc2c1` (stereo not drawn) [Example 283], the Emax came out at 246% and the EC50 is greater than 1 µM.
For `CC1(S(=O)(=O)NC(=O)c2cc(F)c(N3C4CCC3CC(NCc3c(-c5ccccc5OC(F)(F)F)noc3C3CC3)C4)c(F)c2)CC1` (stereo not drawn) [Example 900-12], the Emax was 67% and the EC50 was in the range of 0.001 to 0.1 µM.
The corresponding values for `O=C(O)c1ccc(N2C3CCC2CC(NCc2c(-c4c(Cl)cccc4Cl)noc2C2CC2)C3)nc1` (stereo not drawn) [Example 125] are 86.5% and 0.001 to 0.1 µM.
With `CN(C)S(=O)(=O)NC(=O)c1ccc2nc(N3C4CCC3CN(Cc3c(-c5c(Cl)cccc5Cl)noc3C3CC3)C4)sc2c1` [Example 280], the Emax was 242% and the EC50 is 0.001 to 0.1 µM.
The corresponding values for `CC(C)(C)S(=O)(=O)NC(=O)c1ccc2nc(N3C4CCC3CC(NCc3c(-c5c(Cl)cccc5Cl)noc3C3CC3)C4)sc2c1` (stereo not drawn) [Example 240] are 245% and less than 0.001 µM.
Regarding `Cc1c(C(=O)O)ccc2nc(N3C4CCC3CC(NCc3c(-c5c(Cl)cccc5Cl)noc3C3CC3)C4)sc12` (stereo not drawn) [Example 196], the Emax was 83.5% and the EC50 lay in the range of 0.001 to 0.1 µM.
For `COc1cc2nc(N3C4CCC3CC(NCc3c(-c5c(Cl)cccc5Cl)noc3C3CC3)C4)sc2cc1C(=O)O` (stereo not drawn) [Example 200-8], in that order: 73.5% and less than 0.001 µM.
With `CC1(S(=O)(=O)NC(=O)c2ccc3nc(N4CCC(NCc5c(-c6ccccc6OC(F)(F)F)noc5C5CC5)CC4)sc3c2)CC1` [Example 900-1], the Emax was 80.5% and the EC50 lay within 0.1 to 1 µM.
The corresponding values for `COC(=O)c1cc(OC(C)C)c2nc(N3C4CCC3CC(NCc3c(-c5c(Cl)cccc5Cl)noc3C3CC3)C4)sc2c1` (stereo not drawn) [Example 200-13] are 96% and less than 0.001 µM.
For `COC(=O)c1cc(C)c2nc(N3C4CCC3CC(NCc3c(-c5ccccc5C(F)(F)F)noc3C3CC3)C4)sc2c1` (stereo not drawn) [Example 1404], the Emax turned out to be 46% and the EC50 lay within 0.1 to 1 µM.
`O=C(O)c1cc(F)c2nc(N3C4CCC3CC(NCc3c(-c5ccccc5C(F)(F)F)noc3C3CC3)C4)sc2c1` (stereo not drawn) [Example 1408]: the Emax amounted to 103% and the EC50 was 0.001 to 0.1 µM.
The corresponding values for `O=C(O)c1cc(F)c2nc(N3[C@@H]4CC[C@H]3C[C@@H](NCc3c(-c5c(Cl)cccc5Cl)noc3C3CC3)C4)sc2c1` [Example 4, 2-((1R,3R,5S)-3-(((5-cyclopropyl-3-(2,6-dichlorophenyl)isoxazol-4-yl)methyl)amino)-8-azabicyclo[3.2.1]octan-8-yl)-4-fluorobenzo[d]thiazole-6-carboxylic acid] are 169% and less than 0.001 µM.
For `CCOc1cc(C(=O)OC)cc2sc(N3C4CCC3CC(NCc3c(-c5c(Cl)cccc5Cl)noc3C3CC3)C4)nc12` (stereo not drawn) [Example 200-9], in that order: 81% and 0.001 to 0.1 µM.
Regarding `Cc1cc(C(=O)NS(=O)(=O)C2(C)CC2)cc2sc(N3C4CCC3CC(NCc3c(-c5c(Cl)cccc5Cl)noc3C3CC3)C4)nc12` (stereo not drawn) [Example 400-29], the Emax worked out at 118% and the EC50 was less than 0.001 µM.

A word on the EC50: it is the concentration needed to bring the measured effect to its halfway point. Higher therefore signals weaker potency.
